Here are results for 1 compound from ChEMBL document CHEMBL2429761, “Discovery of ML314, a Brain Penetrant Non-Peptidic β-Arrestin Biased Agonist of the Neurotensin NTR1 Receptor” (ACS Med Chem Lett, 2013).

The target in series [1] is T1, Neurotensin receptor type 1 (Homo sapiens, UniProt P30989). Description: Agonist activity at NTR1 (unknown origin) expressed in CHO cells assessed as stimulation of calcium flux. It is filed as functional, cell-based.
Series [2] in a line: Effective permeability of the compound at 50 uM after 30 mins at donor pH 6.2 and acceptor pH 7.4 by PAMPA. It is filed as ADME. Particulars: pH 6.2, 0.5 h. A general note: The PAMPA barrier holds no transporters, so it reflects passive diffusion.
The subject of series [3] is Plasma. Description: Metabolic stability in human plasma assessed as compound remaining at 1 uM after 3 hrs by LC-MS/MS analysis. It is filed as ADME, cell-free.
The target of series [4] is T2, Mu-type opioid receptor (Homo sapiens, UniProt P35372). The experiment in a line: Binding affinity to mu opioid receptor (unknown origin) at 10 uM relative to control.
In series [5] the target is T1, Neurotensin receptor type 1. To be noted: U2OS.
Description: Agonist activity at NTR1 (unknown origin) expressed in human U2OS cells coexpressing beta-arrestin by GFP reporter gene assay
Series [6] deals with T3, Alpha-2A adrenergic receptor (Homo sapiens) (UniProt P08913).
T3 sequence (whole entry): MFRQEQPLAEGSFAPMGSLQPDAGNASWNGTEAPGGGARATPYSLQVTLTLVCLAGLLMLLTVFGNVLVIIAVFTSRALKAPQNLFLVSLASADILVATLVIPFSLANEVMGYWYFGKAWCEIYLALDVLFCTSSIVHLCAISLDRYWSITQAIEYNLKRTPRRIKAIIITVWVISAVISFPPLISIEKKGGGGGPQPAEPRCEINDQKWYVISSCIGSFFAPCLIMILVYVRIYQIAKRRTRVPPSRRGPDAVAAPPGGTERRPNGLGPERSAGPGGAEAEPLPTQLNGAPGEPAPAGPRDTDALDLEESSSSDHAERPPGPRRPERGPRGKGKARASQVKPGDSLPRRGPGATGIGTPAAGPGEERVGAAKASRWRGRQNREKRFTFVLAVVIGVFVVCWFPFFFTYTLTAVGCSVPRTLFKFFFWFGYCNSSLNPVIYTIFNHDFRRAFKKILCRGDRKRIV
Description: Binding affinity to adrenergic alpha2A receptor (unknown origin) at 10 uM relative to control.

Series [7] concerns the target T2, Mu-type opioid receptor. The experiment in a line: Binding affinity to mu opioid receptor (unknown origin).
The target in series [8] is 5-hydroxytryptamine receptor 7 (Homo sapiens, UniProt P34969). The experiment in a line: Binding affinity to 5-HT7 receptor (unknown origin).
The target of series [9] is G-protein coupled receptor 35 (Homo sapiens, UniProt Q9HC97). The experiment in a line: Agonist activity at GPR35 (unknown origin) expressed in human U2OS cells coexpressing beta-arrestin by GFP reporter gene assay. The format is cell-based. For orientation: In a reporter assay the amount or activity of a reporter protein is the signal.
The target in series [10] is T4, Alpha-1A adrenergic receptor (Homo sapiens) (UniProt P35348).
T4 sequence (whole entry): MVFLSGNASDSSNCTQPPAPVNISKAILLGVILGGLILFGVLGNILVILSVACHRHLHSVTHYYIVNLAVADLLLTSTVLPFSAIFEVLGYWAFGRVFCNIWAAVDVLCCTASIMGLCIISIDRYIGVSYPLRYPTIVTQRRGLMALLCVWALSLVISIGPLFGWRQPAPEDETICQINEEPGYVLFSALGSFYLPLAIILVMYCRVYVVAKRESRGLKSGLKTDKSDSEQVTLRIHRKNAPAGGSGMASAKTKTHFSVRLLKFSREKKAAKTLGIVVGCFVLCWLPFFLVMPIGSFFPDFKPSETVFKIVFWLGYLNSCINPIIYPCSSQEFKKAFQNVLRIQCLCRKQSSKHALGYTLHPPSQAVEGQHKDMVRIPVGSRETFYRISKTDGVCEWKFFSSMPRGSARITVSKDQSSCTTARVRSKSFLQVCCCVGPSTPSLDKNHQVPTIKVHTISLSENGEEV
Description: Binding affinity to adrenergic alpha1A receptor (unknown origin) at 10 uM relative to control.

In series [11] the test system is Plasma. The experiment in a line: Plasma protein binding in human at 10 uM after 4 hrs by LC-MS/MS analysis. The format is ADME, cell-free.

T2 sequence (P35372 whole entry): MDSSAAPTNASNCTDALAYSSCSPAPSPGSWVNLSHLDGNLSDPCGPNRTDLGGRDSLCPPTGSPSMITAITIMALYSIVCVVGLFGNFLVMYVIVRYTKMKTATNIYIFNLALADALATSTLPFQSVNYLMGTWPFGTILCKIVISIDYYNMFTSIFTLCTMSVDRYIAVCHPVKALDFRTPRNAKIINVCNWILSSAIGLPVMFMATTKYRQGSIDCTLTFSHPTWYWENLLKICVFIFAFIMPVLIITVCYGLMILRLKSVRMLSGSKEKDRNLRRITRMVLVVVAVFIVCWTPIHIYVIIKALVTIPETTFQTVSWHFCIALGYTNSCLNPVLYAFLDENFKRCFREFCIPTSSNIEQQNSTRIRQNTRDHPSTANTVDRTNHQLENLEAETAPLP
T1 sequence (P30989 whole entry, the tested form may be a part): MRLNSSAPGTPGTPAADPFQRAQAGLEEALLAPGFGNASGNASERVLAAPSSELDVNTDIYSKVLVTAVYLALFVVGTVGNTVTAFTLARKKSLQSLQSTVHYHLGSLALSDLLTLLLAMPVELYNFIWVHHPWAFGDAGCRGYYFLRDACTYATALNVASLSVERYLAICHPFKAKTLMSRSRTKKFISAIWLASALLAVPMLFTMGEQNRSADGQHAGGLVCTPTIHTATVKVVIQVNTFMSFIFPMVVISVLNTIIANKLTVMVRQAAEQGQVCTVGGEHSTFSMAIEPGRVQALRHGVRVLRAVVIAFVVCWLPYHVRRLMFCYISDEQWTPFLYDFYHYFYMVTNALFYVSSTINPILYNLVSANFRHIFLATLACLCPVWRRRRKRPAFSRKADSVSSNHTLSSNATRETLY
Chain of G-protein coupled receptor 35 (Q9HC97 whole entry): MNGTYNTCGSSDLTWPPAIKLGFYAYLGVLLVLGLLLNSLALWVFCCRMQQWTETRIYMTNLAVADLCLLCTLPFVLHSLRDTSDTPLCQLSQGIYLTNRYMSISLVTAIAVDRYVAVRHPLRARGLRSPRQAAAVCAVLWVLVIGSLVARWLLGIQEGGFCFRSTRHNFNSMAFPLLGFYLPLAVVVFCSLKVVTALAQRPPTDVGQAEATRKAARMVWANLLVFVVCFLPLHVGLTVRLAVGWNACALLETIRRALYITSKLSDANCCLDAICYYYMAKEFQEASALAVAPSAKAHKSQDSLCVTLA
Chain of 5-hydroxytryptamine receptor 7 (P34969 whole entry): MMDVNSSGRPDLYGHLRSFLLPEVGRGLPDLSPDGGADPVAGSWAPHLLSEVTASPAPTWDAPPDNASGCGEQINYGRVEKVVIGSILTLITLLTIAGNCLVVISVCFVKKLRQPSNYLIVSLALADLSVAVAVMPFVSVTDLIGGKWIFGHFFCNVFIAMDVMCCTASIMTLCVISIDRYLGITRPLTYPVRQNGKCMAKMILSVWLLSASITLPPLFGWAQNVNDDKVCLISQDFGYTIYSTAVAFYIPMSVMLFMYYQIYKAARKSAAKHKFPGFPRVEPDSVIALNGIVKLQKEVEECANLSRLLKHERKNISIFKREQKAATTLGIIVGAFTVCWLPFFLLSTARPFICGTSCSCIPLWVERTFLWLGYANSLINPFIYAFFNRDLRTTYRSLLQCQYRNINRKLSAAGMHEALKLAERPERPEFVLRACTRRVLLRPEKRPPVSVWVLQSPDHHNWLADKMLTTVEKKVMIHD

By EC50 is commonly meant the concentration needed to bring the measured effect to its halfway point. A word on the Ki: it is the dissociation constant of the complex between target and ligand, obtained from inhibition or displacement. A high value points to a looser hold on the target. Regarding `COc1cc2nc(C3CC3)nc(N3CCN(c4ccccc4OC)CC3)c2cc1OC`, the EC50 in series [1] is above 80000 nM; in series [9], above 40000 nM. In addition, the Peff in series [2] came to 2140 ×10⁻⁶ cm/s. The Stability in the series on Plasma [3] is given as 100%. Further, the Activity amounted to 86% on Mu-type opioid receptor [4], 63% in series [6] and 63% in [10]. The EC100 in [5] was found to be 10 µM. Further, the Ki at Mu-type opioid receptor [7] was 1540 nM; in [8] it was 930 nM. For the same compound, the PPB in the series with Plasma [11] turned out to be 99.2%.
